Each structure is given as a SMILES string.

T1 sequence (Q96RG2 whole entry): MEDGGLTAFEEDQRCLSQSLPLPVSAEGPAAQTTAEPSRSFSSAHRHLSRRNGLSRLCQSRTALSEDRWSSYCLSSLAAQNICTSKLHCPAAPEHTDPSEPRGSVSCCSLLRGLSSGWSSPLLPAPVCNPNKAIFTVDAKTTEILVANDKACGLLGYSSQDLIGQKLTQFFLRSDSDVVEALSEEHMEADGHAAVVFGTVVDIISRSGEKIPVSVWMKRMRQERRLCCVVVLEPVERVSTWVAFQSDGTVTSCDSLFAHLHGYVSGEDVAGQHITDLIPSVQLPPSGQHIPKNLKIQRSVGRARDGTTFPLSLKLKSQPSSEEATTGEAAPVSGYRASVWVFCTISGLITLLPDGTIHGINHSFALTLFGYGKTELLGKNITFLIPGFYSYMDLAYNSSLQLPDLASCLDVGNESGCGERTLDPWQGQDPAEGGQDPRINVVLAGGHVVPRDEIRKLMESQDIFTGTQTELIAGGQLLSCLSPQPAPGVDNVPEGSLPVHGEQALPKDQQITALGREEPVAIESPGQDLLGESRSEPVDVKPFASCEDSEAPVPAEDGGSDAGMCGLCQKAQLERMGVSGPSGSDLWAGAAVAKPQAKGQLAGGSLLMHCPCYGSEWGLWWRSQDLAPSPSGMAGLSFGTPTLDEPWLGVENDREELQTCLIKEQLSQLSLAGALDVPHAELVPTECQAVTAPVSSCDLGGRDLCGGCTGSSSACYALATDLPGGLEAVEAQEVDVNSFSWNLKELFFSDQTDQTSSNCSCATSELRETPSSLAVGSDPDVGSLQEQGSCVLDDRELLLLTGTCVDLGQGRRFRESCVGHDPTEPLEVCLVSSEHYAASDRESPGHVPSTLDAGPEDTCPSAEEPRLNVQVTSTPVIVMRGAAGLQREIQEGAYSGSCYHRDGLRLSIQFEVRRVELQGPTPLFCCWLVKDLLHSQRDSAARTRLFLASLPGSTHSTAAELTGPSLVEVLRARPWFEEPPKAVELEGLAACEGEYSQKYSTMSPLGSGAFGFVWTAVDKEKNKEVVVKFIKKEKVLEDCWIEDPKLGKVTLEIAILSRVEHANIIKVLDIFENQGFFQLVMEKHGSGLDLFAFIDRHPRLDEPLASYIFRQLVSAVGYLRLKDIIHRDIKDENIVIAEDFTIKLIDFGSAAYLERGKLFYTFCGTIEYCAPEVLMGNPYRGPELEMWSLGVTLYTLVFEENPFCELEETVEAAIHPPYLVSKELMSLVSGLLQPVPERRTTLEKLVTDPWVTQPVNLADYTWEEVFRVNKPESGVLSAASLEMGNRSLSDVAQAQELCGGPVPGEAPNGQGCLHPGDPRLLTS
T4 sequence (Q96RG2 999-1251 limits assumed): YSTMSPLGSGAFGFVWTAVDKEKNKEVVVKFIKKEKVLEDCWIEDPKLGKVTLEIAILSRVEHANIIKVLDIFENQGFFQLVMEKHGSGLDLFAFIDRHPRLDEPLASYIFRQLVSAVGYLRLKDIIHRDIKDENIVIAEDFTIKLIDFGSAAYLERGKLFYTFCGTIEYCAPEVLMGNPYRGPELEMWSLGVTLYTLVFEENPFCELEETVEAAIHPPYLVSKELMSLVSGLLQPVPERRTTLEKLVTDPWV

The first experiment addresses T1, hPASK (Full Length) (Homo sapiens, UniProt Q96RG2).
T1 construct: made in house; host or cells: insect cells
As to the kind of experiment: Biochemical Assay for hPASK Activity (Kinase-Glo Luminescent Kinase Assay), full length. The conditions noted are these: purified hPASK from insect cells, MBP substrate. The method, then: (§1) The assay for purified hPASK activity utilizes the Kinase-Glo Luminescent Kinase Assay (Promega), which quantifies the amount of ATP remaining in solution following kinase reaction. The assay is carried out in a 96-well plate format and is performed by adding a volume of Kinase-Glo Reagent (Promega, catalog #V3771) equal to the volume of solution in the well of a completed kinase reaction. Kinase-Glo reagent contains Luciferase and its substrate. After addition to a kinase reaction it allows to measure luminescence. The amount of ATP left in solution at the time of Kinase-Glo Plus addition is directly proportional to the luminescence that is measured in each well, and inversely correlated with kinase activity.
(§2) Purified hPASK from insect cells (0.02 μg) is added to a 50 μL reaction mix containing 40 mM Hepes (pH 7.0), 100 mM KCl, 5 mM MgCl2, 1 mM DTT and 1 ug of MBP protein. Inhibitory compounds are then added and the mixture is incubated for 10 min at 25° C. before adding 5 μL of ATP (at desired concentration). The reaction is allowed to proceed at 25° C. for 1 hour before adding 50 μL of Kinase-Glo reagent. The luminescence is measured as soon as 10 minutes after Kinase-Glo reagent is added.
By IC50 is commonly meant the concentration that gives 50% inhibition. As for `O=C(O)c1cc2nc(-c3ccc4c(c3)OCO4)c(-c3ccc4c(c3)OCO4)nc2cc1O` [Example 10, 2,3-Di-(3,4-methylenedioxyphenyl)quinoxaline-7-hydroxy-6-carboxylic acid], the IC50 was at most 10 µM.

As to `Cc1nc2cc(C(=O)O)c(O)cc2nc1-c1ccccc1` [Example 3, 7-Hydroxy-2-phenyl-3-methylquinoxaline-6-carboxylic acid], the IC50 is at least 10 µM.

Compound `Cc1ccc(-c2nc3ccc(C(=O)O)cc3nc2-c2ccc(C)cc2)cc1` [Example 7, 2,3-Di-(4-methylphenyl)quinoxaline-6-carboxylic acid] showed an IC50 of at most 10 µM.

For `O=C(O)c1ccc2nc(-c3ccc(F)cc3)c(-c3ccc(F)cc3)nc2c1` [Example 5, 2,3-Di-(4-fluorophenyl)quinoxaline-6-carboxylic acid], the IC50 was at most 10 µM.

With `COc1ccc(-c2nc3ccc(C(=O)O)cc3nc2-c2ccc(OC)c(OC)c2)cc1OC` [Example 4, 2,3-Di-(3,4-dimethoxyphenyl)quinoxaline-6-carboxylic acid], the IC50 is at least 10 µM.

`O=C(O)c1ccc2nc(-c3ccccc3)c(-c3ccccc3)nc2c1` [Example 8, 2,3-Diphenylquinoxaline-6-carboxylic acid] came in with an IC50 of at most 10 µM.

The compound `O=C(O)c1ccc2nc(-c3cccc(O)c3)c(-c3cccc(O)c3)nc2c1` [Example 1, 2,3-Di-(3-hydroxyphenyl)quinoxaline-6-carboxylic acid] registered an IC50 of at most 10 µM.

`O=C(O)c1ccc2nc(-c3ccco3)c(-c3ccco3)nc2c1` [Example 9, 2,3-Di-(2-furyl)quinoxaline-6-carboxylic acid] displayed an IC50 of at most 10 µM.

For `CCOc1ccc(-c2nc3ccc(C(=O)O)cc3nc2-c2ccc(OCC)cc2)cc1` [Example 11, 2,3-Di-(4-ethoxyphenyl)quinoxaline-6-carboxylic acid], the IC50 is at least 10 µM.

With `O=C(O)c1ccc2nc(-c3ccccc3O)c(-c3ccccc3O)nc2c1` [Example 2, 2,3-Di-(2-hydroxyphenyl)quinoxaline-6-carboxylic acid], the IC50 was at most 10 µM.

The target in the next experiment is T2, hPASK Kinase Domain (Homo sapiens, UniProt Q96RG2).
T2 construct: made in house; host or cells: insect cells
T2 sequence (Q96RG2 999-1251 limits assumed): as above
As to the kind of experiment: Biochemical Assay for hPASK Activity (Kinase-Glo Luminescent Kinase Assay), kinase domain. As to conditions: Table 1, first part. The procedure: as §1, §2
`O=C(O)c1cc2nc(-c3ccc4c(c3)OCO4)c(-c3ccc4c(c3)OCO4)nc2cc1O` [Example 10, 2,3-Di-(3,4-methylenedioxyphenyl)quinoxaline-7-hydroxy-6-carboxylic acid]: the IC50 is at most 10 µM.

The compound `Cc1nc2cc(C(=O)O)c(O)cc2nc1-c1ccccc1` [Example 3, 7-Hydroxy-2-phenyl-3-methylquinoxaline-6-carboxylic acid] gave an IC50 of at least 10 µM.

`Cc1ccc(-c2nc3ccc(C(=O)O)cc3nc2-c2ccc(C)cc2)cc1` [Example 7, 2,3-Di-(4-methylphenyl)quinoxaline-6-carboxylic acid] had an IC50 of at least 10 µM.

`O=C(O)c1ccc2nc(-c3ccc(F)cc3)c(-c3ccc(F)cc3)nc2c1` [Example 5, 2,3-Di-(4-fluorophenyl)quinoxaline-6-carboxylic acid] showed an IC50 of at least 10 µM.

With `COc1ccc(-c2nc3ccc(C(=O)O)cc3nc2-c2ccc(OC)c(OC)c2)cc1OC` [Example 4, 2,3-Di-(3,4-dimethoxyphenyl)quinoxaline-6-carboxylic acid], the IC50 was at least 10 µM.

As to `O=C(O)c1ccc2nc(-c3ccccc3)c(-c3ccccc3)nc2c1` [Example 8, 2,3-Diphenylquinoxaline-6-carboxylic acid], the IC50 was at most 10 µM.

As to `O=C(O)c1ccc2nc(-c3cccc(O)c3)c(-c3cccc(O)c3)nc2c1` [Example 1, 2,3-Di-(3-hydroxyphenyl)quinoxaline-6-carboxylic acid], the IC50 is at most 10 µM.

With `O=C(O)c1ccc2nc(-c3ccco3)c(-c3ccco3)nc2c1` [Example 9, 2,3-Di-(2-furyl)quinoxaline-6-carboxylic acid], the IC50 is at most 10 µM.

As for `CCOc1ccc(-c2nc3ccc(C(=O)O)cc3nc2-c2ccc(OCC)cc2)cc1` [Example 11, 2,3-Di-(4-ethoxyphenyl)quinoxaline-6-carboxylic acid], the IC50 was at least 10 µM.

In turn, `O=C(O)c1ccc2nc(-c3ccccc3O)c(-c3ccccc3O)nc2c1` [Example 2, 2,3-Di-(2-hydroxyphenyl)quinoxaline-6-carboxylic acid] gave an IC50 of at most 10 µM.

The same experiment, now with this note: Table 1, second part (Examples 33-59).
Regarding `COc1ccc(-c2nc3cccc(C(=O)O)c3nc2-c2ccc(OC)cc2)cc1` [Example 58, 2,3-Bis(4-methoxyphenyl)quinoxaline-5-carboxylic acid], the IC50 was at most 10 µM.

On to `COc1ccc(-c2nc3ccc(S(N)(=O)=O)cc3nc2-c2ccc(OC)cc2)cc1` [Example 53, 2,3-Bis(4-methoxyphenyl)quinoxaline-6-sulfonamide], for which the IC50 is at most 10 µM.

Consider `COc1ccc(-c2nc3ccc(/C=C/C(=O)O)cc3nc2-c2ccc(OC)cc2)cc1` [Example 56, (E)-3-(2,3-bis(4-methoxyphenyl)quinoxalin-6-yl)acrylic acid], for which the IC50 was at least 10 µM.

Take `CNS(=O)(=O)c1ccc2nc(-c3ccc(OC)cc3)c(-c3ccc(OC)cc3)nc2c1` [Example 54, 2,3-Bis(4-methoxyphenyl)-N-methylquinoxaline-6-sulfonamide]: the IC50 was at least 10 µM.

For `CC(C)(C)c1ccc(-c2nc3cc(C(=O)O)ccc3nc2-c2ccccc2)cc1` [Example 33, 3-(4-tert-Butylphenyl)-2-phenylquinoxaline-6-carboxylic acid], the IC50 was at most 10 µM.

For the compound `CC(C)S(=O)(=O)Nc1ccc(-c2nc3cc(C(=O)O)ccc3nc2-c2ccccc2)cc1` [Example 52, 3-(4-(Isopropylsulfonamido)phenyl)-2-phenylquinoxaline-6-carboxylic acid], the IC50 is at most 10 µM.

`COc1ccc(-c2nc3ccc(S(=O)(=O)N4CCOCC4)cc3nc2-c2ccc(OC)cc2)cc1` [Example 55, 2,3-Bis(4-methoxyphenyl)-6-(morpholinosulfonyl)quinoxaline] had an IC50 of at most 10 µM.

A further experiment deals with T3, PASK (UniProt #Q96RG2; human recombinant N-terminal GST tagged construct, residues 879-1323) (Homo sapiens, UniProt Q96RG2).
T3 construct: N-terminal GST tagged construct, residues 879-1323; GST (N); made in house; host or cells: insect cells
T3 sequence (Q96RG2 879-1323, stated change not applied): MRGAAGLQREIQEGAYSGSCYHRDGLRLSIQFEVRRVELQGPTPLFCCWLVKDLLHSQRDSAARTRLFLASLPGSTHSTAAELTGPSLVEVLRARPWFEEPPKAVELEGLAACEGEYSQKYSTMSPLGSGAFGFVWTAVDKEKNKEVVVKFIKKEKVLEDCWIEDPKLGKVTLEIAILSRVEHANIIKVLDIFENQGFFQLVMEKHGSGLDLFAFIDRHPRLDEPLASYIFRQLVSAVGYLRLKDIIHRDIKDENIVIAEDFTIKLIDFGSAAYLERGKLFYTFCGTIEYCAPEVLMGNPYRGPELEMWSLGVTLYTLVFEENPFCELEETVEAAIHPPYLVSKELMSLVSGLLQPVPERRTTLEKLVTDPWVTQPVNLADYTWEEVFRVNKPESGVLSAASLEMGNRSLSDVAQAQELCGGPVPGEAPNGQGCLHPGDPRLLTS
The experiment in a line: 33P-ATP radiometric PASK kinase assay (P81 phosphocellulose, scintillation counting). The conditions noted are these: Table 2, Myelin Basic Protein 20 μM, 120 min room temperature, average of all trials, read-out: IC50 Kinase Domain. The class given is biochemical. The procedure: Purified PASK (UniProt #Q96RG2; human recombinant N-terminal GST tagged construct, residues 879-1323) from insect cells (final concentration 5 nM) is added to freshly prepared Base Reaction Buffer containing 20 mM Hepes (pH 7.5), 10 mM MgCl2, 1 mM EGTA, 0.02% Brij35, 0.02 mg/ml BSA, 0.1 mM Na3VO4, 2 mM DTT, 1% DMSO and Myelin Basic Protein (20 μM final). Test compounds in DMSO are then added and the mixture, followed by delivery of ^33P-ATP (specific activity 0.01 μCi/μl final) to initiate the reaction. The kinase reaction is incubated for 120 min at room temperature. The entire reaction mixture is washed through onto a P81 Phosphocellulose paper and washed three times for 10 minutes in 75 mM phosphoric acid and once in methanol prior to drying and scintillation counting. When the assay was repeated for a given compound, the activity data is based on the average of all trials.
As for `CC(C)(C)c1ccc(-c2nc3cc(C(=O)O)ccc3nc2-c2ccccc2)cc1` [Example 33, 3-(4-tert-Butylphenyl)-2-phenylquinoxaline-6-carboxylic acid], the concentration for half-maximal inhibition (IC50) was at most 10 µM.

A further experiment addresses T4, PASK (Invitrogen) Kinase Domain (Homo sapiens, UniProt Q96RG2).
T4 construct: IC50 Kinase Domain; purchased Invitrogen
As to the kind of experiment: PASK TR-FRET assay (Ulight-peptide, Eu chelate antibody). Type of experiment: biochemical. The conditions noted are these: TR-FRET 665 nm/615 nm, 2 hours at 25° C. From the text:
The aim of the FRET assay is to determine the inhibition potential of test compounds on targeted kinase. This assay platform provides a homogenous screening method for measuring kinase activity by quantitating the amount of phospho-substrate in solution following a kinase reaction.
In the presence of kinase and ATP, the Ulight-peptide is phosphorylated and captured by an anti-phospho-substrate antibody, which brings the Eu chelate donor and Ulight acceptor dyes into close proximity. Upon excitation at 340 nm, the Eu chelate transfers its energy to the Ulight dye, resulting in a fluorescent light emission at 665 nm.
Titration of Kinase at 1 mM ATP was achieved via the following protocol. After making serial three-fold dilutions of PASK (Invitrogen) in reaction buffer across the plate; 5 μl of kinase dilution and 5 μl substrate/ATP mix were added to the wells of the white Optiplate-384 (PerkinElmer). The contents of the plate were and incubated at RT for 1 h. The reaction was stopped by adding 5 μl of stop solution to each test well followed by mixing and incubation at RT for 10 minutes. 5 μl of detection mix (detection antibody diluted in detection buffer) was added; the contents of the plate were mixed and then incubated in the dark for 1 hour at RT. The signal was recorded at TR-FRET mode (665 nm/615 nm). The results were graphed to calculate the EC50.
Titration of ATP at the EC50 Concentration of Kinase to determine ATP Km,app. was performed using the following method. After making serial dilutions of ATP (Invitrogen), 5 μl of ATP dilution and 5 μl substrate/kinase mix were added to the wells of the white Optiplate-384 (PerkinElmer). The contents of the plate were and incubated at RT for 1 h. The reaction was stopped by adding 5 μl of stop solution to each test well followed by mixing and incubation at RT for 10 minutes. 5 μl of detection mix (detection antibody diluted in detection buffer) was added; the contents of the plate were mixed and then incubated in the dark for 1 hour at RT. The signal was recorded at TR-FRET mode (665 nm/615 nm). The results were graphed to calculate the EC50 as the ATP Km,app.
Compound screening was done via the following method. 10 mM stock solution of test compound in DMSO was prepared by dissolving test compound in DMSO at RT for 1 hour, and then sonicating at 100% output for 8 minutes. If compound is not soluble under this condition, it was diluted to 3 mM. Kinase reaction buffer was prepared containing 10 mM MgCl2, 50 mM HEPES, 1 mM EGTA, 0.01% TWEEN-20, 2 mM DTT. […] The signal was recorded at TR-FRET mode (665 nm/615 nm).
For orientation: TR-FRET usually uses a lanthanide donor and a delayed reading to cut background.
As to `COc1ccc(-c2cc3cc(C(=O)O)ccc3nc2-c2ccc(OC)cc2)cc1` [Example 61, 2,3-Bis(4-methoxyphenyl)quinoline-6-carboxylic acid], the IC50 is at most 10 µM.

For the compound `COc1ccc(-c2nc3cc(C(=O)O)ccc3cc2-c2ccccc2)cc1` [Example 60, 2-(4-Methoxyphenyl)-3-phenylquinoline-7-carboxylic acid], the IC50 is at most 10 µM.

`CC(C)(C)c1ccc(-c2nc3cc(C(=O)O)ccc3nc2-c2ccccc2)cc1` [Example 33, 3-(4-tert-Butylphenyl)-2-phenylquinoxaline-6-carboxylic acid] showed an IC50 of at most 10 µM.

`CC(C)S(=O)(=O)Nc1ccc(-c2nc3cc(C(=O)O)ccc3nc2-c2ccccc2)cc1` [Example 52, 3-(4-(Isopropylsulfonamido)phenyl)-2-phenylquinoxaline-6-carboxylic acid]: the IC50 is at most 10 µM.
